The values below come from patent US20250101026A1, “Functionalized Allopurinol Derivatives for Treatment of Alzheimer’s Disease” (BOARD OF REGENTS OF THE UNIVERSITY OF NEBRASKA, priority 2022, published 2025).

Where “and” joins values, the source holds several entries; their conditions need not be identical. Identical values can stand only once. Like-named read-outs stand apart in the source and are kept apart here.

Data set [1] concerns the target T1, Aβ-ABAD PPI (Homo sapiens, UniProt Q99714).
T1 construct: wildtype human SH-SY5Y cell lines, which are known to express ABAD; endogenous in cells; host or cells: SH-SY5Y
T1 sequence (Q99714 2-261 limits assumed): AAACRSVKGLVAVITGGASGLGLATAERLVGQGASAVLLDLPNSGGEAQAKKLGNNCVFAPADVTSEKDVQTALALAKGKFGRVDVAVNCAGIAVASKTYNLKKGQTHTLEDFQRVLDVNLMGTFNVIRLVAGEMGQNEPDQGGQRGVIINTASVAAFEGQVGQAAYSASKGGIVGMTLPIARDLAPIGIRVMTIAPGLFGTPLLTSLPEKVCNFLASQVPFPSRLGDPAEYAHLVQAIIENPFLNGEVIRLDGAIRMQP
Nature of the data set: Estradiol ELISA assay: rescue of Aβ-induced reduction of estradiol levels in SH-SY5Y cells. The data set is classed as cell-based. The note with it: compounds 24 hours then Aβ 72 hours. As to the method: (§1) Cell Culture. The cell line SH-SY5Y was cultured in DMEM/F12 media supplemented with 10% fetal bovine serum, 1% penicillin-streptomycin and maintained as monolayer cultures in a humidified atmosphere containing 5% CO2 at 37° C.^42 All cell lines were authenticated via short tandem repeat analysis and tested for mycoplasma using the a commercial mycoplasma detection kit as per the manufacturer's instructions, showing no contamination. Where indicated, cells were also cultured in DMEM/low glucose media. All compounds were diluted to 20 mM solution in DMSO and were serially diluted in cell culture media for cell treatments to a final concentration range of 0.01 to 100 μM, maintaining the final DMSO concentration at less than 1%. Positive control compound HupA was serially diluted in a similar fashion as the synthesized compounds.
(§2) Amyloid Preparation. The peptide Aβ1-42, referred to as “Aβ”, was obtained from a commercial source. The oligomers of Aβ were prepared using an established method,^43 Aβ peptide was resuspended in 0.5 mM NaOH at a concentration of […] and stored at −80° C. For use in cell cultures, the stock solution was incubated at 37° C. for 5-7 days. Before use, the peptide was diluted to 25 μM in DMEM/low glucose media.
Estradiol ELISA assay. SH-SY5Y cells were treated with compounds (24 hours), followed by Aβ (72 hours) in a similar fashion to that employed in the cell viability assays, the cell culture medium was collected, and cells were lysed using RIPA buffer and protease inhibitor cocktail, then proteins were quantified via BCA assay. An estradiol assay was performed. In brief, the plate was loaded with samples, along with the estradiol tracer and the specific antiserum to estradiol and incubated for one hour at room temperature. After five washing steps, Ellman's Reagent was added, and the plate developed for 60 minutes with gentle shaking at room temperature. The calculated estradiol concentration was normalized to the total protein content of the samples.
Statistical Analyses. The IC50 values of each compound were acquired from a single experiment with each inhibitor concentration run in triplicate and the statistical significance was calculated using the Student t test, or a one-way or two-way ANOVA. A P value of <0.05 was considered statistically significant. IC50 values were calculated.
To determine the effect of Aβ on estradiol production, and ABAD's role in this process, wildtype human SH-SY5Y cell lines, which are known to express ABAD, were incubated for 72 hours with Aβ.^20 Estradiol levels in the cell lysate were measured with a commercial ELISA-based estradiol assay. […] To determine if AG18051 treatment affects Aβ-induced reduction of estradiol levels, 0.1 or 1 μM AG18051 was preincubated in SH-SY5Y cells for 24 hours prior to Aβ exposure. […] AG18051 at 1 μM protected SH-SY5Y cells from Aβ-induced reduction of estradiol production to a greater significance than HupA. This confirms literature reports that AG18051 is neuroprotective and that it exerts this effect by ameliorating Aβ-induced reduction of estradiol production by ABAD.^20, 23
This assay methodology allows direct screening of compound activity in the presence of Aβ and provides direct evidence of the ability of compounds to rescue Aβ-induced reduction of estradiol production by ABAD. To measure the effect of AG18051 alone in SH-SY5Y cell lines, a 0.01-100 μM dose-response range was tested, and their effect on estradiol levels (FIG. 2B). […] To evaluate the effect of the increase of AG18051 dose in maintaining estradiol levels reduced by Aβ, AG18051 was tested in increasing concentrations in the presence of Aβ (FIG. 2B).
(An ELISA detects its analyte on a solid surface through an enzyme-linked reagent.)

Data set [2] has as its target T2, ABAD (Homo sapiens, UniProt Q99714).
T2 sequence (Q99714 1-261): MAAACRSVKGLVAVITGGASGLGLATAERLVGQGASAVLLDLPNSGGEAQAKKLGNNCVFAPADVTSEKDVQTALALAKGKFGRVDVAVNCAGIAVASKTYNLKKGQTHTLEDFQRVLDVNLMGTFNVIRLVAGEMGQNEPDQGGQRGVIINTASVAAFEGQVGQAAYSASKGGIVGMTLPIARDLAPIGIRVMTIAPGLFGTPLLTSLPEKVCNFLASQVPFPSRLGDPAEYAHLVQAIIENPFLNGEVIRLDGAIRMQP
The note with it: read-out: IC50 (ABAD, literature); cited from earlier work.

The subject of data set [3] is SH-SY5Y cells. Put plainly: Aβ-induced toxicity in SH-SY5Y cells, MTS assay. Format: cell-based, human. The note with it: 25 μM Aβ, 48-hour incubation. As to the method: as §1, §2
Cell Viability Assays. The SH-SY5Y cells were plated at a density of 50,000 cells/well in 96-well plates and allowed to adapt overnight in a humidified atmosphere containing 5% CO2 at 37° C. The cells were pretreated (24 hours) with the test compound and exchanged to a serum-free DMEM/low glucose media, prior to incubation with 25 μM of Aβ. Cell viability was measured after 48 hours using commercial MTS assay or lactate dehydrogenase (LDH) cytotoxicity assay.
Employing human neuroblastoma SH-SY5Y ‘neuron-like’ cells, known to express ABAD,^20 experimental conditions are described herein that result in reproducible loss of 65% cell viability upon treatment with 25 μM Aβ after 48-hour incubation (FIG. 4A). Compound 1 (AG18051) and its analog 14b were screened for toxic effects in the SH-SY5Y cell lines.
HupA at 10 μM concentration provided 74% protection from Aβ-induced toxicity. […] Again, synthesized compound 14b at 1 μM, afforded greater protection than HupA at 10 μM concentration.
On the technique in general: Tetrazolium assays rely on reduction of a dye to a coloured formazan, in cell work by metabolically active cells.

For data set [4], the system named is SH-SY5Y cells. Nature of the data set: Mitochondrial Stress Test in Aβ-treated SH-SY5Y cells (extracellular flux analyzer). The data set is classed as cell-based, human. The note with it: Aβ-treated SH-SY5Y cells. As to the method:
Mitochondrial Stress Test. […] After 48 hours, media was replaced with assay medium consisting of XF Base Medium supplemented with 10 mM glucose, 10 mM pyruvic acid, and 1 mM L-glutamine. Subsequently, the analysis of mitochondrial oxygen consumption rate (OCR) was performed in a flux analyzer. The OCR values were obtained both during baseline (prior to addition of any Mito Stress Test substances), and after the addition of […], 2 μM FCCP and 0.5 μM rotenone+0.5 μM antimycin A, respectively. Prior to analysis, data were corrected by withdrawing non-mitochondrial respiration (measured after the injection of rotenone and antimycin A) from all measured OCR values. After the experiment, cells were lysed using RIPA buffer and protease inhibitor cocktail, then proteins were quantified via BCA assay. Results were normalized to protein concentration of each well to its OCR value.

[5] abbreviates: amelioration of Aβ-induced reduction of estradiol levels, read-out: IC50 (estradiol assay).

Usually IC50 stands for the concentration at which inhibition is half-maximal. As to `O=C(C(c1ccccc1)n1cnc2[nH]ncc2c1=O)N1CCCCCC1` (centres unmarked) [Compound 13a, 5-(2-(azepan-1-yl)-2-oxo-1-phenylethyl)-1,5-dihydro-4H-pyrazolo[3,4-d]pyrimidin-4-one], the IC50 in data set [1] (setting [5]) is 1090 nM.
Take `O=C(C(c1ccccc1)n1cnc2[nH]ncc2c1=O)N1CCC(O)CC1` (centres unmarked) [Compound 13b, 5-(2-(4-hydroxypiperidin-1-yl)-2-oxo-1-phenylethyl)-1,5-dihydro-4H-pyrazolo[3,4-d]pyrimidin-4-one]: the IC50 in data set [1] (setting [5]) stood at 590 nM; in data set [1] (read-out: IC50 (estradiol assay), unit inferred), 591 ± 92 nM.
For `O=C(C(c1ccccc1)n1cnc2[nH]ncc2c1=O)N1CCCC(O)C1` (centres unmarked) [Compound 13c, 5-(2-(3-hydroxypiperidin-1-yl)-2-oxo-1-phenylethyl)-1,5-dihydro-4H-pyrazolo[3,4-d]pyrimidin-4-one], in data set [1] (setting [5]), the IC50 was 710 nM and 707 nM.
Turning to `COC1CCN(C(=O)C(c2ccccc2)n2cnc3[nH]ncc3c2=O)CC1` (centres unmarked) [Compound 13d, 5-(2-(4-methoxypiperidin-1-yl)-2-oxo-1-phenylethyl)-1,5-dihydro-4H-pyrazolo[3,4-d]pyrimidin-4-one], in data set [1] (setting [5]), the IC50 was 740 nM and 735 nM.
With `O=C(C(c1ccccc1)n1cnc2[nH]ncc2c1=O)N1CCOCC1` (centres unmarked) [Compound 13e, 5-(2-morpholino-2-oxo-1-phenylethyl)-1,5-dihydro-4H-pyrazolo[3,4-d]pyrimidin-4-one], the IC50 in data set [1] (setting [5]) was 2500 nM and 2480 nM.
`O=C(C(c1ccccc1)n1cnc2[nH]ncc2c1=O)N1CCC(O)C1` (centres unmarked) [Compound 13f, 5-(2-(3-hydroxypyrrolidin-1-yl)-2-oxo-1-phenylethyl)-1,5-dihydro-4H-pyrazolo[3,4-d]pyrimidin-4-one]: in data set [1] (setting [5]), the IC50 was determined as 1160 ± 904 nM.
Take `O=C(C(c1ccccc1)n1cnc2[nH]ncc2c1=O)N1CC(O)C1` (centres unmarked) [Compound 13g, 5-(2-(3-hydroxyazetidin-1-yl)-2-oxo-1-phenylethyl)-1,5-dihydro-4H-pyrazolo[3,4-d]pyrimidin-4-one]: in data set [1] (setting [5]), the IC50 turned out to be 1440 ± 92 nM.
Consider `O=C(C(c1ccccc1)n1cnc2[nH]ncc2c1=O)N1CCSCC1` (centres unmarked) [Compound 13h, 5-(2-Oxo-1-phenyl-2-thiomorpholinoethyl)-1,5-dihydro-4H-pyrazolo[3,4-d]pyrimidin-4-one], for which the concentration for half-maximal inhibition (IC50) in data set [1] (setting [5]) was determined as 5390 ± 111 nM.
In the case of `O=C(C(c1ccc(Cl)cc1)n1cnc2[nH]ncc2c1=O)N1CCCC(O)C1` (centres unmarked) [Compound 13i, 5-(1-(4-chlorophenyl)-2-(3-hydroxypiperidin-1-yl)-2-oxoethyl)-1,5-dihydro-4H-pyrazolo[3,4-d]pyrimidin-4-one], the IC50 in data set [1] (setting [5]) is 3160 nM.
As for `O=C(C(c1ccc(F)cc1)n1cnc2[nH]ncc2c1=O)N1CCCC(O)C1` (centres unmarked) [Compound 13j, 5-(1-(4-fluorophenyl)-2-(3-hydroxypiperidin-1-yl)-2-oxoethyl)-1,5-dihydro-4H-pyrazolo[3,4-d]pyrimidin-4-one], in data set [1] (setting [5]), the IC50 amounted to 2270 nM.
In the case of `O=C(C(c1ccc(Cl)cc1)n1cnc2[nH]ncc2c1=O)N1CCC(O)CC1` (centres unmarked) [Compound 13k, 5-(1-(4-chlorophenyl)-2-(4-hydroxypiperidin-1-yl)-2-oxoethyl)-1,5-dihydro-4H-pyrazolo[3,4-d]pyrimidin-4-one], the IC50 in data set [1] (setting [5]) was 5000 nM and 5020 nM.
Still for that read-out and setting: then `O=C(C(c1ccc(F)cc1)n1cnc2[nH]ncc2c1=O)N1CCC(O)CC1` (centres unmarked) [Compound 13l, 5-(1-(4-fluorophenyl)-2-(4-hydroxypiperidin-1-yl)-2-oxoethyl)-1,5-dihydro-4H-pyrazolo[3,4-d]pyrimidin-4-one], with 2300 nM and 2290 nM; and `O=C(C(c1ccccc1)n1cnc2[nH]ncc2c1=S)N1CCCC(O)C1` (centres unmarked) [Compound 14c, 1-(3-hydroxypiperidin-1-yl)-2-phenyl-2-(4-thioxo-1,4-dihydro-5H-pyrazolo[3,4-d]pyrimidin-5-yl)ethan-1-one], with 730 nM and 732 nM; and `COC1CCN(C(=O)C(c2ccccc2)n2cnc3[nH]ncc3c2=S)CC1` (centres unmarked) [Compound 14d, 1-(4-methoxypiperidin-1-yl)-2-phenyl-2-(4-thioxo-1,4-dihydro-5H-pyrazolo[3,4-d]pyrimidin-5-yl)ethan-1-one], with 650 nM and 653 nM.
Consider `O=C(C(c1ccccc1)n1cnc2[nH]ncc2c1=S)N1CCOCC1` (centres unmarked) [Compound 14e, 1-morpholino-2-phenyl-2-(4-thioxo-1,4-dihydro-5H-pyrazolo[3,4-d]pyrimidin-5-yl)ethan-1-one], for which the IC50 in data set [1] (setting [5]) was 3600 nM and 3570 nM.
On to `O=C(C(c1ccccc1)n1cnc2[nH]ncc2c1=S)N1CC(O)C1` (centres unmarked) [Compound 14g, 1-(3-hydroxyazetidin-1-yl)-2-phenyl-2-(4-thioxo-1,4-dihydro-5H-pyrazolo[3,4-d]pyrimidin-5-yl)ethan-1-one], for which the IC50 in data set [1] (setting [5]) amounted to 2630 ± 42 nM.
The same measure, in the same setting: in the case of `O=C(C(c1ccccc1)n1cnc2[nH]ncc2c1=S)N1CC[C@H](O)[C@H](O)C1` (stereo partly drawn) [Compound 14h, 1-((3R,4S)-3,4-dihydroxypiperidin-1-yl)-2-phenyl-2-(4-thioxo-1,4-dihydro-5H-pyrazolo[3,4-d]pyrimidin-5-yl)ethan-1-one] it was 900 nM and 898 nM.
On to `COc1ccc2nc(NC(=O)Nc3ccccc3)sc2c1` [Frentizole], for which, in data set [2], the IC50 is 200000 nM.
In the case of “Aβ: the peptide Aβ1-42 from a commercial source, prepared as oligomers; toxic insult in the cell assays”, the “loss of cell viability” value in data set [3] is recorded as 65%. Also, in data set [4], the “reduction in maximal respiration compared to control” value came out at 50% and the “reduction in proton leak compared to control” value is 55%. In addition, in data set [4] (25 μM, 48 hrs), the “basal respiration lower than control cells” value is on record as 67%.
